Measurements reported in ChEMBL document CHEMBL5505969, “Discovery of new piperaquine hybrid analogs linked by triazolopyrimidine and pyrazolopyrimidine scaffolds with antiplasmodial and transmission blocking activities” (Eur J Med Chem, 2024).
Activity calls are given as the source filed them. No cut-off for these calls is given here.

Columns and labels:
Plasmodium falciparum [1] = assay: Antiplasmodial activity against sorbitol-synchronized ring stage chloroquine sensitive Plasmodium falciparum 3D7 infected in erythrocytes measured after 48 hrs by SYBR green dye based fluorescence analysis; format: functional, organism-based; settings: 3D7, Erythrocyte
Plasmodium falciparum [2] = assay: Antiplasmodial activity against sorbitol-synchronized ring stage 2-(1,1-difluoroethyl)-5-methyl-N-(4-(pentafluoro-l6-sulfaneyl)phenyl)-[1,2,4]triazolo[1,5-a]pyrimidin-7-amine resistant Plasmodium falciparum Dd2 infected in erythrocytes measured after 48 hrs by SYBR green dye based fluorescence analysis; format: functional, organism-based; settings: Dd2, Erythrocyte
Plasmodium falciparum [3] = assay: (§1) Resistance index, ratio of IC50 for antiplasmodial activity against sorbitol-synchronized ring stage 2-(1,1-difluoroethyl)-5-methyl-N-(4-(pentafluoro-l6-sulfaneyl)phenyl)-[1,2,4]triazolo[1,5-a]pyrimidin-7-amine resistant Plasmodium falciparum Dd2 infected in erythrocytes to IC50 for antiplasmodial activity against sorbitol-synchronized ring stage chloroquine sensitive Plasmodium falciparum 3D7 infected in erythrocytes; format: functional
[4] = molecular target: T1, Dihydroorotate dehydrogenase (quinone), mitochondrial (Plasmodium falciparum (isolate 3D7)) (UniProt Q08210); assay: Inhibition of Plasmodium falciparum DHODH assessed as residual activity at 100 uM measured over 60 secs by DCIP dye based colorimetric assay relative to control; settings: time > 60.0 sec
T1 sequence (whole entry): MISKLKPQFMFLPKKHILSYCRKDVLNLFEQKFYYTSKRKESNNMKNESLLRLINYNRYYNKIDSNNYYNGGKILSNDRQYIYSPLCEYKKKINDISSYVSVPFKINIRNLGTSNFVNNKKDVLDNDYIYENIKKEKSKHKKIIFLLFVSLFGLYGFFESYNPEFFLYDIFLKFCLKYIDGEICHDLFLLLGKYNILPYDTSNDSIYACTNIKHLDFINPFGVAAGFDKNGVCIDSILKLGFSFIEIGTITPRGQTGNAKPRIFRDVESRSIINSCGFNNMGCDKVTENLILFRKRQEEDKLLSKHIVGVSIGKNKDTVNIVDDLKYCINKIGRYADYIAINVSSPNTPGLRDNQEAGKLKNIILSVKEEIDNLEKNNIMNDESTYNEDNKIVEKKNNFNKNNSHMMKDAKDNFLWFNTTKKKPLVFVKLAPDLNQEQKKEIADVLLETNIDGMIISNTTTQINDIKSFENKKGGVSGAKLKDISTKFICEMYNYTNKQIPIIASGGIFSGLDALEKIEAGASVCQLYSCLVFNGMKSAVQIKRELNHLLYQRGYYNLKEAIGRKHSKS

[5] = molecular target: T1, Dihydroorotate dehydrogenase (quinone), mitochondrial (Plasmodium falciparum (isolate 3D7)); assay: Inhibition of Plasmodium falciparum DHODH at 100 uM measured over 60 secs by DCIP dye based colorimetric assay relative to control; settings: time > 60.0 sec
[6] = Cytotoxicity against human HepG2 cells assessed as reduction in cell viability incubated for 72 hrs by MTT assay; format: toxicity, cell-based
Plasmodium falciparum [7] = assay: Antiplasmodial activity against sorbitol-synchronized ring stage chloroquine resistant Plasmodium falciparum K1 infected in erythrocytes measured after 48 hrs by SYBR green dye based fluorescence analysis; format: functional, organism-based; settings: K1, Erythrocyte
[8] = Selectivity index, ratio of CC50 for human HepG2 cells to IC50 for antiplasmodial activity against sorbitol-synchronized ring stage chloroquine sensitive Plasmodium falciparum 3D7 infected in erythrocytes; format: toxicity, cell-based; settings: Plasmodium falciparum 3D7 in erythrocytes, read-out: Ratio CC50/IC50
Plasmodium falciparum [9] = assay: as §1, with “chloroquine” for “2-(1,1-difluoroethyl)-5-methyl-N-(4-(pentafluoro-l6-sulfaneyl)phenyl)-[1,2,4]triazolo[1,5-a]pyrimidin-7-amine”, “K1” for “Dd2”; format: functional
Plasmodium falciparum [10] = assay: Potency index, ratio of chloroquine IC50 to test compound IC50 for antiplasmodial activity against sorbitol-synchronized ring stage chloroquine resistant Plasmodium falciparum K1 infected in erythrocytes measured after 48 hrs by SYBR green dye based fluorescence analysis; format: functional, Erythrocyte
Plasmodium falciparum [11] = assay: (§2) Antiplasmodial activity against sorbitol-synchronized ring stage chloroquine, mefloquine and pyrimethamine resistant Plasmodium falciparum Dd2 harboring N86F/M74I/ N75E/K75T mutation in MDR1 gene, N51I/C59R/S108N mutation in DHFR gene and S436F/A437G/A613S mutation in DHPS gene infected in erythrocytes measured after 48 hrs by SYBR green dye based fluorescence analysis; format: functional, organism-based; settings: Dd2, Erythrocyte
Plasmodium falciparum [12] = assay: (§3) Resistance index, ratio of IC50 for antiplasmodial activity against sorbitol-synchronized ring stage chloroquine, mefloquine and pyrimethamine resistant Plasmodium falciparum Dd2 harboring N86F/M74I/ N75E/K75T mutation in MDR1 gene, N51I/C59R/S108N mutation in DHFR gene and S436F/A437G/A613S mutation in DHPS gene infected in erythrocytes to IC50 for antiplasmodial activity against sorbitol-synchronized ring stage chloroquine sensitive Plasmodium falciparum 3D7 infected in erythrocytes; format: functional
Plasmodium falciparum [13] = assay: as §2, with “atovaquone” for “chloroquine, mefloquine and pyrimethamine”, “TM90C6B” for “Dd2”, “Y268S mutation in CYTB gene, Y184F” for “N86F/M74I/ N75E/K75T”, “S436F/A437G/A581G” for “S436F/A437G/A613S”; format: functional, organism-based; settings: Erythrocyte
Plasmodium falciparum [14] = assay: as §3, with “atovaquone” for “chloroquine, mefloquine and pyrimethamine”, “TM90C6B” for “Dd2”, “Y268S mutation in CYTB gene, Y184F” for “N86F/M74I/ N75E/K75T”, “S436F/A437G/A581G” for “S436F/A437G/A613S”; format: functional
Plasmodium falciparum [15] = assay: Antiplasmodial activity against sorbitol-synchronized ring stage MMV848 resistant Plasmodium falciparum 3D7 infected in erythrocytes measured after 48 hrs by SYBR green dye based fluorescence analysis; format: functional, organism-based; settings: 3D7, Erythrocyte
Plasmodium falciparum [16] = assay: as §1, with “MMV848” for “2-(1,1-difluoroethyl)-5-methyl-N-(4-(pentafluoro-l6-sulfaneyl)phenyl)-[1,2,4]triazolo[1,5-a]pyrimidin-7-amine”, “3D7” for “Dd2”; format: functional
[17] = Ratio of IC50 for Plasmodium falciparum infected in erythrocytes measured after 24 hrs by SYBR green dye based fluorescence assay to IC50 for Plasmodium falciparum infected in erythrocytes measured after 72 hrs by SYBR green dye based fluorescence assay; format: functional, Erythrocyte
Plasmodium falciparum [18] = assay: Antiplasmodial activity against Plasmodium falciparum infected in erythrocytes assessed as reduction in parasite growth at 10 uM measured within 24 hrs; format: functional, organism-based; settings: Erythrocyte
Plasmodium falciparum [19] = assay: Antiplasmodial activity against Plasmodium falciparum infected in erythrocytes assessed as induction of parasite death by measuring appearance of multiple pyknotic nuclei at 10 uM measured after 24 to 72 hrs; format: functional, organism-based; settings: Erythrocyte, time 24-72 hrs
Plasmodium falciparum [20] = assay: Antiplasmodial activity against GFP expressing sorbitol-synchronized ring stage laboratory adapted Plasmodium falciparum 3D7HT assessed as reduction in infectivity by measuring inhibition of gametocyte formation at 10 uM treated for 72 hrs followed by replacement with fresh media without compound for 24 hrs and measured on day 4 by giemsa staining based microscopic analysis; format: functional
Plasmodium berghei = assay: Antiplasmodial activity against GFP-expressing Plasmodium berghei HSP70 infected in CD-1 mouse assessed as inhibition of ookinete formation at 10 uM measured after 22 hrs by giemsa staining based microscopic analysis; format: functional; settings: read-out: INH
Plasmodium falciparum [21] = assay: Antiplasmodial activity against Plasmodium falciparum infected in erythrocytes assessed as reduction in parasite growth at 500 nM measured until 24 hrs; format: functional, organism-based; settings: Erythrocyte
[22] = molecular target: T2, Dihydroorotate dehydrogenase (quinone), mitochondrial (Plasmodium falciparum (isolate 3D7), UniProt Q08210); assay: Inhibition of Plasmodium falciparum DHODH
T2 sequence (Q08210 whole entry): T1 sequence (whole entry)

Plasmodium falciparum [23] = assay: Potency index, ratio of chloroquine IC50 to test compound IC50 for antiplasmodial activity chloroquine-resistant against Plasmodium falciparum W2 by anti-[…] incorporation assay; format: functional

SMILES | IC50 (Plasmodium falciparum [1]) | IC50 (Plasmodium falciparum [2]) | Ratio IC50 (Plasmodium falciparum [3]) | Activity [4] | inhibition [5] | CC50 at 72 h [6] | IC50 (Plasmodium falciparum [7]) | selectivity ratio [8] | IC50 (Plasmodium falciparum [11]) | Ratio IC50 (Plasmodium falciparum [12]) | IC50 (Plasmodium falciparum [13]) | Ratio IC50 (Plasmodium falciparum [14]) | IC50 (Plasmodium falciparum [15]) | Ratio IC50 (Plasmodium falciparum [16]) | inhibition at 10 µM (Plasmodium falciparum [20]) | Percent inhibition of ookinete formation at 10 µM (Plasmodium berghei) | further results
Cc1cc(Nc2ccc(S(F)(F)(F)(F)F)cc2)n2nc(C(C)(F)F)nc2n1 [DSM-265] | 4 nM | 12 nM | 3 | < 10% |  |  |  |  |  |  |  |  |  |  |  |  | 
Cc1cc(N2CCN(c3ccnc4cc(Cl)ccc34)CC2)n2nc(C(F)(F)F)nc2n1 | 7000 nM |  |  | 105% | < 50% |  |  |  |  |  |  |  |  |  |  |  | 
CCN(CC)CCCC(C)Nc1ccnc2cc(Cl)ccc12 (stereo not given) [CHLOROQUINE] |  |  |  |  |  | 398 µM |  |  |  |  |  |  |  |  |  |  | 
Cc1cc(NCCCNc2ccnc3cc(Cl)ccc23)n2nc(C(F)(F)F)nc2n1 | 673 nM |  |  | 51.5% | < 50% | 113 µM | 3000 nM | 168 |  |  |  |  |  |  |  |  | Ratio IC50 (Plasmodium falciparum [9]): 4.5
Cc1cc(NCCCCCCCNc2ccnc3cc(Cl)ccc23)n2nc(C)cc2n1 | 46 nM | 50 nM | 1 | 89.4% | < 50% | 9.7 µM | 71 nM | 211 | 38 nM | 0.8 | 40 nM | 0.9 | 20 nM | 0.4 | 66.5% | 43% | Ratio IC50 (Plasmodium falciparum [9]): 1.5; Ratio IC50 (Plasmodium falciparum [10]): 3; Ratio IC50 [17]: 0.8; Activity (Plasmodium falciparum [18]): Active; Activity (Plasmodium falciparum [19]): Active
CCc1nc(N)nc(N)c1-c1ccc(Cl)cc1 [PYRIMETHAMINE] |  |  |  |  |  |  |  |  |  |  |  |  |  |  |  |  | Ratio IC50 [17]: 3; Activity (Plasmodium falciparum [21]): inactive
Cc1cc(NCCCCCCCNc2ccnc3cc(Cl)ccc23)n2nc(C)nc2n1 | 120 nM | 150 nM | 1.3 | 78.8% | < 50% | 17 µM | 210 nM | 142 | 170 nM | 1.4 | 180 nM | 1.5 | 50 nM | 0.4 | 85.8% | 0% | 
Cc1cc(N2CCN(c3ccnc4cc(Cl)ccc34)CC2)n2nc(C)cc2n1 | 4400 nM |  |  | 108% | < 50% |  |  |  |  |  |  |  |  |  |  |  | 
Cc1cc(Nc2ccc3ccccc3c2)n2nc(C(F)(F)F)nc2n1 |  |  |  |  |  |  |  |  |  |  |  |  |  |  |  |  | IC50 [22]: 700 nM; Ratio IC50 (Plasmodium falciparum [23]): 10
Cc1cc(NCCCCCCCNc2ccnc3cc(Cl)ccc23)n2ncnc2n1 | 110 nM | 230 nM | 2.1 | 73.5% | < 50% | 16 µM | 300 nM | 146 | 320 nM | 2.9 | 200 nM | 2.2 | 120 nM | 1.1 | 2% | 30% | 
